Assay results as given in US20200207782A1, “CHEMICALLY ACTIVATED WATER-SOLUBLE PRODRUG” (SUMITOMO DAINIPPON PHARMA CO., LTD, priority 2017, published 2020).
In brackets after ≈: the same amount, converted by molar mass. Several values for one entry are separate records, joined by “and”; a condition that tells them apart may be missing. Equal entries are not always repeated. Structures can show the parent of a compound that is named as a salt.

Legend:
physchem = settings: thermodynamic from solid; for solubility at 24 h: pH 2, aqueous buffer
Experimental: (§7) The solubility of the water-soluble prodrugs described in the Examples and the Reference Examples was measured. […] The filtrate was measured by HPLC.

[1] = Evaluation of conversion rate to active form in human plasma; assay type: in vitro ADME; settings: human, 10 umol/L
Experimental: (§1) The ratio of decrease of a test compound and the conversion ratio to a corresponding active form (2-acetylthieno[3,2-f][1]benzofuran-4,8-dione) in human plasma and CD1 mouse plasma were measured for Example 1.
(§2) The test compounds were incubated at 37° C. at a concentration of 10 umol/L in human plasma (cat. no. 12250210, Cosmo Bio) and CD1 mouse plasma (cat. no. AP3054, KAC) and retrieved for a given time (0, 5, 10, 30, 60, and 120 minutes) and deproteinized, then analyzed by LC-MS. Acetonitrile comprising each of 10% quantity of 1 mol/L hydrochloric acid, 1% quantity of 46% citric acid, and phenytoin as an internal standard was used for deproteinization.
(§3) LC-MS measurement conditions were the following.
(§4) The yield of the Examples compounds and active form 2-acetylthieno[3,2-f][1]benzofuran-4,8-dione is calculated with each of the peak area of the Example compounds at 0 minutes and the peak area upon dissolution of 2-acetylthieno[3,2-f][1]benzofuran-4,8-dione at 100 umol/L as 100%. The yield is denoted in terms of %.
(§5) In the same manner as Example 1, the conversion ratio to an active form was measured for each of the various test compounds in human plasma and CD1 mouse plasma, with incubation time as 120 minutes. It was confirmed that the series of compounds of the invention was converted to an active form with a small interspecies difference in human plasma and CD1 mouse plasma.
(§6) The yield of the active forms is calculated with the each peak area upon dissolution of the generated active form at 100 umol/L as 100%. The yield is denoted in terms of %.

[2] = Evaluation of conversion rate to active form in CD1 mouse plasma; assay type: in vitro ADME; settings: CD1, mouse, 10 umol/L
Experimental: as §1, §2, §3, §4, §5, §6

[3] = Solution stability test (residual ratio and generation of active form in buffers of pH 2.0 to 9.0); assay type: physicochemical; design: Rate of generation of active form after 24 hours in buffer with pH of 7.4: tested at 25 µM; settings: for Residual ratio: 25 umol/L; for Degradation behaviour in buffers (in words): pH 2.0 to 9.0
Experimental: The test compounds were incubated at 25° C. at a concentration of 25 umol/L in a buffer prepared to have a pH of 2.0, 3.0, 5.0, 7.4, and 9.0. The compounds were measured by HPLC after 0, 3, 6, 9, 12, and 24 hours.
The buffers used at each pH are the following. • pH 2.0: 50 mmol/L glycine buffer • pH 3.0: 50 mmol/L citrate buffer • pH 5.0: 50 mmol/L citrate buffer • pH 7.4: 50 mmol/L phosphate buffer • pH 9.0: 50 mmol/L glycine buffer
The measurement conditions for HPLC are the following.
The yield of the Example and Reference Example compounds and active forms is calculated with each of the peak area of the Example and Reference Example compounds at 0 minutes and the peak area upon dissolution of the corresponding active form at 100 umol/L as 100%. The yield is denoted in terms of %

[4] = pH 2
Experimental: as §7

CC(=O)c1cc2c(o1)C(=O)c1sccc1C2=O [2-acetylthieno[3,2-f][1]benzofuran-4,8-dione, reference compound]
solubility at 24 h (physchem; 50 mmol/L glycine buffer): 4 µg/mL (≈ 16.2 µM)
Measurement value % of active form (conversion ratio to active form) ([1]; 0 min): 0.0%
Measurement value % of active form (conversion ratio to active form) ([1]; 5 min): 36.4%
Measurement value % of active form (conversion ratio to active form) ([1]; 10 min): 51.6%
Measurement value % of active form (conversion ratio to active form) ([1]; 30 min): 83.4%
Measurement value % of active form (conversion ratio to active form) ([1]; 60 min): 89.7%
Measurement value % of active form (conversion ratio to active form) ([1]; 120 min): 91.3%
Measurement value % of active form (conversion ratio to active form) ([2]; 0 min): 0.0%
Measurement value % of active form (conversion ratio to active form) ([2]; 5 min): 21.1%
Measurement value % of active form (conversion ratio to active form) ([2]; 10 min): 36.7%
Measurement value % of active form (conversion ratio to active form) ([2]; 30 min): 70.8%
Measurement value % of active form (conversion ratio to active form) ([2]; 60 min): 73.8%
Measurement value % of active form (conversion ratio to active form) ([2]; 120 min): 71.4%

CN1CC[C@H](c2c(OC(=O)N(C)CCN)cc(O)c3c(=O)cc(-c4ccccc4Cl)oc23)[C@H](O)C1 [Example 8, 2-(2-chlorophenyl)-5-hydroxy-8-[(3S,4R)-3-hydroxy-1-methylpiperidin-4-yl]-4-oxo-4H-chromen-7-yl (2-aminoethyl) methylcarbamate ditrifluoroacetate]
Residual ratio ([3]; pH2.0 buffer, 25° C., 0 hr): 100%
Residual ratio ([3]; pH2.0 buffer, 25° C., 3 hr): 100%
Residual ratio ([3]; pH2.0 buffer, 25° C., 6 hr): 100%
Residual ratio ([3]; pH2.0 buffer, 25° C., 9 hr): 100%
Residual ratio ([3]; pH2.0 buffer, 25° C., 12 hr): 100%
Residual ratio ([3]; pH2.0 buffer, 25° C., 24 hr): 100%
Degradation behaviour in buffers (in words) [3]: pH dependent and chemical degradation progressed
Residual ratio ([3]; pH3.0 buffer, 25° C., 0 hr): 100%
Residual ratio ([3]; pH3.0 buffer, 25° C., 3 hr): 100%
Residual ratio ([3]; pH3.0 buffer, 25° C., 6 hr): 100%
Residual ratio ([3]; pH3.0 buffer, 25° C., 9 hr): 100%
Residual ratio ([3]; pH3.0 buffer, 25° C., 12 hr): 100%
Residual ratio ([3]; pH3.0 buffer, 25° C., 24 hr): 100%
Residual ratio ([3]; pH5.0 buffer, 25° C., 0 hr): 100%
Residual ratio ([3]; pH5.0 buffer, 25° C., 3 hr): 98.2%
Residual ratio ([3]; pH5.0 buffer, 25° C., 6 hr): 96.1%
Residual ratio ([3]; pH5.0 buffer, 25° C., 9 hr): 94.4%
Residual ratio ([3]; pH5.0 buffer, 25° C., 12 hr): 92.4%
Residual ratio ([3]; pH5.0 buffer, 25° C., 24 hr): 85% and 85.2%
Residual ratio ([3]; pH7.4 buffer, 25° C., 0 hr): 76.4%
Residual ratio ([3]; pH7.4 buffer, 25° C., 3 hr): 0.1%
Residual ratio ([3]; pH7.4 buffer, 25° C., 6 hr): 0.0%
Residual ratio ([3]; pH7.4 buffer, 25° C., 9 hr): 0.1%
Residual ratio ([3]; pH7.4 buffer, 25° C., 12 hr): 0.2%
Residual ratio ([3]; pH7.4 buffer, 25° C., 24 hr): 0.5%
Rate of generation of active form after 24 hours in buffer with pH of 7.4 ([3]; pH 7.4 buffer, 24 hours, 25° C.): 88%
Residual ratio ([3]; pH9.0 buffer, 25° C., 0 hr): 9.7%
Residual ratio ([3]; pH9.0 buffer, 25° C., 3 hr): 0.2%
Residual ratio ([3]; pH9.0 buffer, 25° C., 6 hr): 0.2%
Residual ratio ([3]; pH9.0 buffer, 25° C., 9 hr): 0.1%
Residual ratio ([3]; pH9.0 buffer, 25° C., 12 hr): 0.1%
Residual ratio ([3]; pH9.0 buffer, 25° C., 24 hr): 0.0%
Stability in solution (in words) ([3]; pH of 2.0, 25° C.): sufficient stability
Stability in solution (in words) ([3]; pH of 3.0, 25° C.): sufficient stability
solubility (physchem; pH 5, aqueous buffer): > 10000 µg/mL

CC1(C)CCc2c(OC(=O)NCCNCC(=O)O)c(OC(=O)NCCNCC(=O)O)c3ccccc3c2O1 [Example 4, 2,2′-[(2,2-Dimethyl-3,4-dihydro-2H-benzo[H]chromene-5,6-diyl)bis(oxycarbonyliminoethane-2,1-diylimino)]diacetic acid dihydrochloride]
Degradation behaviour in buffers (in words) [3]: pH dependent and chemical degradation progressed
Stability in solution (in words) ([3]; pH of 2.0, 25° C.): sufficient stability
Stability in solution (in words) ([3]; pH of 3.0, 25° C.): sufficient stability
solubility at 24 h (physchem): > 10000 µg/mL

C[C@H]1COC2=C1C(=O)C(=O)c1c2ccc2c1CCCC2(C)C [(1R)-1,6,6-trimethyl-1,2,6,7,8,9-hexahydrophenanthro[1,2-b]furan-10,11-dione]
Solubility in buffer [4]: Below
